Results on 7 compounds are retold here after patent publication US20260201008A1, “SECRETIN-DERIVED GLP1R SELECTIVE AGONISTS” (GUBRA A/S, priority 2023, published 2026).

For series [1], the target named is GLP1R (Homo sapiens, UniProt P43220). Put plainly: hGLP1R potency, cAMP accumulation in CHO-K1 cells stably overexpressing hGLP1R. The arrangement: host or cells: CHO-K1. Type of series: cell-based. To be noted: for EC50: cAMP accumulation; for SCTR EC50/GLP1R EC50 ratio: cAMP accumulation in CHO-K1 cells; for Selectivity: SCTR EC50/GLP1R EC50 ratio. In short, it runs like this:
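In the presence of 0.5 mM IBMX, compounds stimulated the cells for 30 minutes at room temperature. Accumulated cAMP was then detected by TR-FRET, with EC50 values fitted by variable-slope nonlinear regression.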
On the technique in general: Cyclic AMP is a second messenger, typically raised through Gs and lowered through Gi signalling.

For series [2], the target named is SCTR (Homo sapiens, UniProt P47872). Description: hSCTR potency, cAMP accumulation in CHO-K1 cells stably overexpressing hSCTR. It is filed as cell-based. Also noted: alternatively Euroscreen ES-712-AF; FAST-0161L; host or cells: CHO-K1. The settings on record: cAMP accumulation. An outline of the steps: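 In this Gs cAMP assay, stably transfected CHO-K1 hSCTR cells were stimulated at room temperature for 30 min in IBMX-containing buffer. Time-resolved FRET gave the signal. Replicates were increased when the top concentration changed or EC50 values differed 5-fold.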

The nature of series [3]: Turbidity of crude library peptides (absorbance at 600 nm). Type of series: physicochemical. The settings on record: Physical stability of peptides. An outline of the steps:
(§1)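 Fibril formation is scored as average ThT fluorescence from duplicate samples monitored for 72 h at 40° C with shaking stress. Turbidity is the absorbance at 600 nm taken before heating. Peptide concentration was 267 μM at pH 4.0 or pH 7.0.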

Series [4] is described as follows: Fibril formation of crude library peptides (Thioflavin T). Type of series: physicochemical. Also noted: key: average ThT fluorescence emission at 480 nm (ex 450 nm), raw units. The settings on record: Physical stability of peptides. An outline of the steps:
as §1

The mark [5] stands for this setting: CHO-K1 cells overexpressing hGLP1R, read-out: hGLP1R pEC50 (converted).
[6] abbreviates: selectivity for hGLP1R over hSCTR.
[7] abbreviates: CHO-K1 cells overexpressing hSCTR, read-out: hSCTR pEC50 (converted).
Setting [8] is: CHO-K1 cells overexpressing hGLP1R, read-out: pEC50 hGLPR1 (converted).
The mark [9] stands for this setting: CHO-K1 cells overexpressing hSCTR, read-out: pEC50 hSCTR (converted).

Where two headings read alike, the source gives them in different places. Numbered stars: 1 amine (or outer) side, 2 acyl side, 3 side chain; on linkers, the order of the positions; unused ones are H or OH. Square brackets hold non-standard residues; d marks the D form. Side chains are listed from the residue outwards. Peptide text beside a SMILES is read from it. * marks the point of attachment. C20 diacid = O=C(O)CCCCCCCCCCCCCCCCCCC(=O)*; γGlu = O=C(O)[C@H](CCC(=O)[*:2])N[*:1]; AEEA = NCCOCCOCC(=O)O; Aib = CC(C)(N)C(=O)O

Sequence of GLP1R (P43220 24-463): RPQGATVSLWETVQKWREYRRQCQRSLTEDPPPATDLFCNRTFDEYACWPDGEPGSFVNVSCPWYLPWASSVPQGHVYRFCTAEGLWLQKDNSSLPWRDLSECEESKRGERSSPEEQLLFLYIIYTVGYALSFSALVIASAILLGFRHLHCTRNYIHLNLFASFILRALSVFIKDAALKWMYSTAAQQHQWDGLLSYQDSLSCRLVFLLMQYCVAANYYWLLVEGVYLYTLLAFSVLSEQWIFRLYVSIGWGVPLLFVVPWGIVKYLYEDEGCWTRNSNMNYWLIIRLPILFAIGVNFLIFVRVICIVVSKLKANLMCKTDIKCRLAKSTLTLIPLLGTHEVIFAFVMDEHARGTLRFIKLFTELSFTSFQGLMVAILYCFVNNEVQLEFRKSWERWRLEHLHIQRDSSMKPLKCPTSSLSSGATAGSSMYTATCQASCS
Sequence of SCTR (P47872 23-440): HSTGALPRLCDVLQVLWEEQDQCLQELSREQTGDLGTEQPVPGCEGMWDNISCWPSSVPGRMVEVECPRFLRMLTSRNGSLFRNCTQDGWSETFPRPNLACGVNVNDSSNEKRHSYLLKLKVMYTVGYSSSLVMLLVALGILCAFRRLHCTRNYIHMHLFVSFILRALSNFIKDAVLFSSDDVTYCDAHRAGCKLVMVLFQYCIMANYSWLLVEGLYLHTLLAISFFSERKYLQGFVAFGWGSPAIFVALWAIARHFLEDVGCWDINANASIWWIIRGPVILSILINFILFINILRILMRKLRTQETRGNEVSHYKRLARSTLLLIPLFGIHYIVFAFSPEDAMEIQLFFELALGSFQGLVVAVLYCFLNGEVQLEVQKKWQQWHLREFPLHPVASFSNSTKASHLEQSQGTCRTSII

For `CC(C)C[C@H](NC(=O)[C@H](Cc1ccccc1)NC(=O)[C@H](CCCNC(=N)N)NC(=O)[C@H](CCC(N)=O)NC(=O)[C@H](CC(C)C)NC(=O)C(C)(C)NC(=O)[C@H](C)NC(=O)[C@H](CCC(=O)O)NC(=O)[C@H](CCC(=O)O)NC(=O)[C@H](Cc1c[nH]c2ccccc12)NC(=O)[C@H](CC(C)C)NC(=O)[C@H](Cc1ccc(O)cc1)NC(=O)[C@H](CO)NC(=O)[C@@H](NC(=O)[C@H](CC(=O)O)NC(=O)[C@H](CO)NC(=O)[C@@H](NC(=O)[C@H](Cc1ccccc1)NC(=O)[C@@H](NC(=O)CNC(=O)[C@H](CCC(=O)O)NC(=O)C(C)(C)NC(=O)[C@@H](N)Cc1c[nH]cn1)[C@@H](C)O)[C@@H](C)O)C(C)C)C(=O)N[C@@H](CCC(=O)O)C(=O)N[C@@H](CCCCNC(=O)COCCOCCNC(=O)COCCOCCNC(=O)CC[C@H](NC(=O)CCCCCCCCCCCCCCCCCCC(=O)O)C(=O)O)C(=O)N[C@@H](CC(C)C)C(=O)N[C@H](C(N)=O)C(C)C` [compound 130] (H-H[Aib]EGTFTSDVSYLWEEA[Aib]LQRFLEK([AEEA-AEEA-γGlu-C20 diacid])LV-NH2), the EC50 in series [1] (setting [5]) is 0.0316 nM; in series [2] (setting [7]), 1000 nM. Further, in series [1] (setting [6]), the “SCTR EC50/GLP1R EC50 ratio” value is listed as 34990. Besides, the “Turbidity (pH 7)” value in series [3] was determined as 0.08. In addition, the Fibril formation in series [4] is recorded as 4181.
For the compound `CC(C)C[C@H](NC(=O)[C@H](Cc1ccccc1)NC(=O)[C@H](CCCNC(=N)N)NC(=O)[C@H](CCC(N)=O)NC(=O)[C@@H](NC(=O)[C@H](C)NC(=O)[C@H](C)NC(=O)C(C)(C)NC(=O)[C@H](CCC(=O)O)NC(=O)[C@H](CCCCNC(=O)COCCOCCNC(=O)COCCOCCNC(=O)CC[C@H](NC(=O)CCCCCCCCCCCCCCCCCCC(=O)O)C(=O)O)NC(=O)[C@H](CC(C)C)NC(=O)[C@H](CCCNC(=N)N)NC(=O)[C@H](CO)NC(=O)[C@@H](NC(=O)[C@H](CC(=O)O)NC(=O)[C@H](CO)NC(=O)[C@@H](NC(=O)[C@H](Cc1ccccc1)NC(=O)[C@@H](NC(=O)CNC(=O)[C@H](CCC(=O)O)NC(=O)C(C)(C)NC(=O)[C@@H](N)Cc1c[nH]cn1)[C@@H](C)O)[C@@H](C)O)C(C)C)[C@@H](C)O)C(=O)N[C@@H](CCC(=O)O)C(=O)N[C@@H](Cc1c[nH]cn1)C(=O)N[C@@H](CC(C)C)C(=O)N[C@H](C(N)=O)C(C)C` [compound 50] (H-H[Aib]EGTFTSDVSRLK([AEEA-AEEA-γGlu-C20 diacid])E[Aib]AATQRFLEHLV-NH2), in series [1], the Selectivity is 3425. Moreover, the EC50 in series [1] (setting [8]) was 0.0158 nM; in series [2] (setting [9]), 50.1 nM. Moreover, the “Turbidity (pH 7)” value in series [3] was determined as 0.09. This compound returned a Fibril formation in series [4] of 12284.
Turning to `CC(C)C[C@H](NC(=O)[C@H](Cc1ccccc1)NC(=O)[C@H](CCCNC(=N)N)NC(=O)[C@H](CCC(N)=O)NC(=O)[C@H](CO)NC(=O)[C@H](C)NC(=O)[C@H](C)NC(=O)[C@H](CCC(=O)O)NC(=O)[C@H](CCC(=O)O)NC(=O)[C@H](CCCCNC(=O)COCCOCCNC(=O)COCCOCCNC(=O)CC[C@H](NC(=O)CCCCCCCCCCCCCCCCCCC(=O)O)C(=O)O)NC(=O)[C@H](CC(C)C)NC(=O)[C@H](Cc1ccccc1)NC(=O)[C@H](CO)NC(=O)[C@@H](NC(=O)[C@H](CC(=O)O)NC(=O)[C@H](CO)NC(=O)[C@@H](NC(=O)[C@H](Cc1ccccc1)NC(=O)[C@@H](NC(=O)CNC(=O)[C@H](CCC(=O)O)NC(=O)C(C)(C)NC(=O)[C@@H](N)Cc1c[nH]cn1)[C@@H](C)O)[C@@H](C)O)C(C)C)C(=O)N[C@@H](CCC(=O)O)C(=O)N[C@@H](Cc1c[nH]cn1)C(=O)N[C@@H](CC(C)C)C(=O)N[C@H](C(N)=O)C(C)C` [compound 38] (H-H[Aib]EGTFTSDVSFLK([AEEA-AEEA-γGlu-C20 diacid])EEAASQRFLEHLV-NH2), the Selectivity in series [1] was determined as 35785. Also, the EC50 was 0.0316 nM in series [1] (setting [8]) and 1000 nM in series [2] (setting [9]). In addition, the “Turbidity (pH 7)” value in series [3] was determined as 0.09. This compound also registered a Fibril formation in series [4] of 38424.
`CC[C@H](C)[C@H](NC(=O)[C@H](Cc1ccccc1)NC(=O)[C@H](CCCNC(=N)N)NC(=O)[C@H](CCC(N)=O)NC(=O)[C@H](CC(C)C)NC(=O)[C@H](C)NC(=O)[C@H](C)NC(=O)CNC(=O)[C@H](CCC(=O)O)NC(=O)[C@H](CC(C)C)NC(=O)[C@H](CC(C)C)NC(=O)C(C)(C)NC(=O)[C@H](CO)NC(=O)[C@H](Cc1c[nH]c2ccccc12)NC(=O)[C@H](CC(=O)O)NC(=O)[C@H](CO)NC(=O)[C@@H](NC(=O)[C@H](Cc1ccccc1)NC(=O)[C@@H](NC(=O)CNC(=O)[C@H](CCC(=O)O)NC(=O)C(C)(C)NC(=O)[C@@H](N)Cc1c[nH]cn1)[C@@H](C)O)[C@@H](C)O)C(=O)N[C@@H](CCC(N)=O)C(=O)N[C@@H](Cc1c[nH]c2ccccc12)C(=O)N[C@@H](CC(C)C)C(=O)N[C@H](C(N)=O)C(C)C` [compound 192] (H-H[Aib]EGTFTSDWS[Aib]LLEGAALQRFIQWLV-NH2): the EC50 in series [1] (CHO-K1 cells stably overexpressing hGLP1R, read-out: hGLP1R potency (pEC50) (converted)) was 0.126 nM; in series [2] (CHO-K1 cells stably overexpressing hSCTR, read-out: hSCTR potency (pEC50) (converted)), 50.1 nM. For the same compound, in series [1] (selectivity ratio, hSCTR vs hGLP1R), the “SCTR EC50/GLP1R EC50 ratio” value is 383. Moreover, the “Turbidity (pH 7)” value in series [3] stood at 0.54. For the same compound, the Fibril formation in series [4] is 29535.
As to `CC(C)C[C@H](NC(=O)[C@H](Cc1ccccc1)NC(=O)[C@H](CCCNC(=N)N)NC(=O)[C@H](CCC(N)=O)NC(=O)C(C)(C)NC(=O)[C@H](C)NC(=O)[C@H](C)NC(=O)C(C)(C)NC(=O)[C@H](CCC(=O)O)NC(=O)[C@H](CCCCNC(=O)COCCOCCNC(=O)COCCOCCNC(=O)CC[C@H](NC(=O)CCCCCCCCCCCCCCCCCCC(=O)O)C(=O)O)NC(=O)[C@H](CC(C)C)NC(=O)[C@H](CCC(=O)O)NC(=O)[C@H](CO)NC(=O)[C@@H](NC(=O)[C@H](CC(=O)O)NC(=O)[C@H](CO)NC(=O)[C@@H](NC(=O)[C@H](Cc1ccccc1)NC(=O)[C@@H](NC(=O)CNC(=O)[C@H](CCC(=O)O)NC(=O)C(C)(C)NC(=O)[C@@H](N)Cc1c[nH]cn1)[C@@H](C)O)[C@@H](C)O)C(C)C)C(=O)N[C@@H](CCC(=O)O)C(=O)N[C@@H](Cc1c[nH]cn1)C(=O)N[C@@H](CC(C)C)C(=O)N[C@H](C(N)=O)C(C)C` [compound 7] (H-H[Aib]EGTFTSDVSELK([AEEA-AEEA-γGlu-C20 diacid])E[Aib]AA[Aib]QRFLEHLV-NH2), the Selectivity in series [1] came out at 18030. Moreover, the EC50 in series [1] (setting [8]) is 0.0631 nM; in series [2] (setting [9]), 1000 nM. In addition, in series [3], the “Turbidity (pH 7)” value was found to be 0.08. Also, the Fibril formation in series [4] turned out to be 10801.
Turning to `CC[C@H](C)[C@H](NC(=O)[C@H](Cc1ccccc1)NC(=O)[C@H](CCCNC(=N)N)NC(=O)[C@H](CCC(N)=O)NC(=O)[C@H](CC(C)C)NC(=O)[C@H](C)NC(=O)[C@H](C)NC(=O)CNC(=O)[C@H](CCC(=O)O)NC(=O)[C@H](CC(C)C)NC(=O)[C@H](CC(C)C)NC(=O)[C@H](CCCNC(=N)N)NC(=O)[C@H](CO)NC(=O)[C@@H]1CCCN1C(=O)[C@H](CC(=O)O)NC(=O)[C@H](CO)NC(=O)[C@@H](NC(=O)[C@H](Cc1ccccc1)NC(=O)[C@@H](NC(=O)CNC(=O)[C@H](CCC(=O)O)NC(=O)C(C)(C)NC(=O)[C@@H](N)Cc1c[nH]cn1)[C@@H](C)O)[C@@H](C)O)C(=O)N[C@@H](CCC(N)=O)C(=O)N[C@@H](Cc1c[nH]c2ccccc12)C(=O)N[C@@H](CC(C)C)C(=O)N[C@H](C(N)=O)C(C)C` [compound 124] (H-H[Aib]EGTFTSDPSRLLEGAALQRFIQWLV-NH2), the EC50 was 2.51 nM in series [1] (setting [5]) and 5010 nM in series [2] (setting [7]). For the same compound, the “SCTR EC50/GLP1R EC50 ratio” value in series [1] (setting [6]) worked out at 2086. Moreover, the “Turbidity (pH 7)” value in series [3] is recorded as 0.12. This compound also displayed a Fibril formation in series [4] of 1370.
For the compound `CC(C)C[C@H](NC(=O)[C@H](Cc1ccccc1)NC(=O)[C@H](CCCNC(=N)N)NC(=O)[C@H](CCC(N)=O)NC(=O)[C@H](CC(C)C)NC(=O)C(C)(C)NC(=O)[C@H](C)NC(=O)[C@H](CCC(=O)O)NC(=O)[C@H](CCC(=O)O)NC(=O)[C@H](Cc1ccc(O)cc1)NC(=O)[C@H](CC(C)C)NC(=O)[C@H](Cc1ccc(O)cc1)NC(=O)[C@H](CO)NC(=O)[C@@H](NC(=O)[C@H](CC(=O)O)NC(=O)[C@H](CO)NC(=O)[C@@H](NC(=O)[C@H](Cc1ccccc1)NC(=O)[C@@H](NC(=O)CNC(=O)[C@H](CCC(=O)O)NC(=O)C(C)(C)NC(=O)[C@@H](N)Cc1c[nH]cn1)[C@@H](C)O)[C@@H](C)O)C(C)C)C(=O)N[C@@H](CCC(=O)O)C(=O)N[C@@H](CCCCNC(=O)COCCOCCNC(=O)COCCOCCNC(=O)CC[C@H](NC(=O)CCCCCCCCCCCCCCCCCCC(=O)O)C(=O)O)C(=O)N[C@@H](CC(C)C)C(=O)N[C@H](C(N)=O)C(C)C` [compound 143] (H-H[Aib]EGTFTSDVSYLYEEA[Aib]LQRFLEK([AEEA-AEEA-γGlu-C20 diacid])LV-NH2), the EC50 in series [1] (setting [5]) is 0.01 nM; in series [2] (setting [7]), 794 nM. Besides, the “SCTR EC50/GLP1R EC50 ratio” value in series [1] (setting [6]) worked out at 88736. Moreover, the “Turbidity (pH 7)” value in series [3] came to 0.08. This compound also yielded a Fibril formation in series [4] of 5733.
